pKd: −log10 of the molar value.
Experiments:
[1] = molecular target: T1, AaSiaP (TRAP N-acetylneuraminate substrate-binding protein SiaP) (Aggregatibacter actinomycetemcomitans, UniProt A0A5D0EK58); experiment: microscale thermophoresis; also crystal structure ([…] A), DSF, SAXS; parameters: gene ACT75_01630; mature chain without native signal peptide (replaced by pelB), residual N-terminal Met-Asp; strain 624, WP_005538762.1
[2] = molecular target: T1, AaSiaP (TRAP N-acetylneuraminate substrate-binding protein SiaP); experiment: microscale thermophoresis; parameters: gene ACT75_01630; mature chain without native signal peptide (replaced by pelB), residual N-terminal Met-Asp; strain 624, WP_005538762.1
[3] = molecular target: T1, AaSiaP (TRAP N-acetylneuraminate substrate-binding protein SiaP); parameters: gene ACT75_01630

T1 sequence (A0A5D0EK58 entry or part of it): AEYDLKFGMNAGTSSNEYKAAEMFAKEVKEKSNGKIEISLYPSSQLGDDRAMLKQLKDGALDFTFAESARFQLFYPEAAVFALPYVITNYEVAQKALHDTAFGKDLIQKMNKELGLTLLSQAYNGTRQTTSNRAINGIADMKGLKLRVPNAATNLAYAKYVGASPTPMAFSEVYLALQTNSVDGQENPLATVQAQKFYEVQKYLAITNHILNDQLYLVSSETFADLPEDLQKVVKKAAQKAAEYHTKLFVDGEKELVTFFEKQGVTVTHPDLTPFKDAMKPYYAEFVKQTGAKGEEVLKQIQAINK

## CC(=O)N[C@H]1[C@H]([C@H](O)[C@H](O)CO)O[C@](O)(C(=O)O)C[C@@H]1O [Neu5Ac, N-acetylneuraminate]
[1]
  pKd: 6.37

## O=C(CO)N[C@H]1[C@H]([C@H](O)[C@H](O)CO)O[C@@](O)(C(=O)O)C[C@@H]1O [Neu5Gc, N-glycolylneuraminate]
[2]
  pKd: 5.36

## CC(=O)O [acetate]
[3]
  crystal structure (2.58 A, chains A and B); acetate from the crystallization cond: Acetate makes favorable interactions with residues R127, R147, and N189 on domain II within the binding site of AaSiaP

Reference: publication PMC11550005, “On the function of TRAP substrate-binding proteins: Conformational variation of the sialic acid binding protein SiaP” (The Journal of Biological Chemistry, 2024)
